Reference: patent US20040029847A1 (priority 2003, published 2004)

What was measured:
[1] = system: hERβ; assay: Relative binding affinity (RBA) to hERβ, cited from Kuiper et al.; set-up: species or system human; settings: quotient of RBA to hERβ and hERα
Excerpt: In this case, it is assumed that ERβ predominates in the rat prostates over ERα, and ERα predominates in rat uteri over ERβ.

[2] = system: hERβ; settings: relative binding affinity, estradiol = 100; cited from earlier work
[3] = system: estrogen receptor preparations from rat prostates; assay: Competitive binding with 3H-estradiol to estrogen receptor from rat prostate cytosol

ERβ/ERα [1]	Rat prost. ER(RBA) ([3]; rat prostate cytosol, 3H-estradiol as ligand, estradiol = 100)	prost. ER/uterus ER ([3]; ratio of RBA at rat prostate ER to rat uterus ER)	Compound	hERβ RBA* [2]
1	100	1	Estradiol	100
			C[C@]12CC[C@@H]3c4ccc(O)cc4CC[C@H]3[C@@H]1C[C@@H](O)[C@@H]2O [Estriol]	21
